Values quoted from earlier work in US20240398817A1, “CARDIO- AND RENOSAFE ANTIDIABETIC THERAPY” (priority 2018, published 2024).
Like-named read-outs stand apart in the source and are kept apart here.

Key:
Details in all cases: in vivo; cited from earlier work
[1] = system: people with type 2 diabetes
[2] = system: people with type 2 diabetes; remark: listed apart in the source
[3] = system: people with type 2 diabetes; remark: listed apart in the source

Compound: Cn1c(=O)cc(N2CCC[C@@H](N)C2)n(Cc2ccccc2C#N)c1=O [alogliptin]
- Incidence of hospitalization for heart failure versus placebo, in words [1]: numerically increased
- Major adverse CV events compared with placebo, in words [1]: neutral effects

Compound: N#C[C@@H]1C[C@@H]2C[C@@H]2N1C(=O)[C@@H](N)C12CC3CC(CC(O)(C3)C1)C2 [saxagliptin]
- Major adverse CV events compared with placebo, in words [2]: neutral effects

Compound: N[C@@H](CC(=O)N1CCn2c(nnc2C(F)(F)F)C1)Cc1cc(F)c(F)cc1F [sitagliptin]
- Incidence of heart failure hospitalization versus placebo, in words [3]: no effect
- Major adverse CV events compared with placebo, in words [3]: neutral effects
